From US6683184B2, “Piperazine derivatives and process for the preparation thereof” (Samjin Pharmaceutical Co., Ltd., priority 1999, dated 2004)
In brackets after ≈: the same amount, converted by molar mass. Read-outs that look alike come from different tables or passages of the source.

Experiments:
XF 498 (human CNS) = test: In vitro antitumor effect against human tumor cell lines, SRB assay, XF 498; type: cell-based; settings: 48 hours; for IC50: Homo sapiens, XF498, XF-498 cells, read-out: ED50 XF-498
Protocol: (§1) In vitro antitumor effect against human tumor cell lines.
(§2) a. Human solid tumor cell lines, A549(non-small lung cell), SKMEL-2(melanoma), HCT-15(colon), SKOV-3(ovarian), XF-498(CNS) were cultured at 37° C. in 5% CO2 incubators using RPMI 1640 media containing 10% FBS, while they were transfer-cultured successively once or twice per week. Cell cultures were dissolved in a solution of 0.25% trypsin and 3 mM CDTA PBS(−) and then cells were separated from media which the cells were sticked on.
(§3) b. 5×10^3˜2×10^4 cells were added into each well of 96-well plate and cultured in 5% CO2 incubator, at 37° C., for 24 hours.
(§4) c. Each sample drug was dissolved in a little DMSO and diluted with the used medium to a prescribed concentration for experiments, wherein the final concentration of DMSO was controlled below 0.5%.
(§5) d. Medium of each well cultured for 24 hours as above b. was removed by aspiration. Each 200 μl of drug samples prepared in c. was added into each well and the wells were cultured for 48 hours. Tz(time zero) plates were collected at the point of time drugs were added.
(§6) e. According to the SRB assay method, cell fixing with TCA, staining with 0.4% SRB solution, washing with 1% acetic acid and elution of dye with 10 mM Tris solution were carried out on Tz plates and culture-ended plates, whereby OD values were measured at 520 nm.
(§7) a. Time zero(Tz) value was determined with measuring the SRB protein amounts of the Tz plates collected at the point of time drugs were added.
(§8) b. Control value(C) was determined with the OD values of wells untreated with a drug.
(§9) c. Drug-treated test value(T) was determined with the OD values of drug-treated wells.
(§10) d. Effects of drugs were estimated with growth stimulation, net growth inhibition, net killing etc., being calculated from Tz, C and T.
(§11) e. If T≧Tz, cellular response function was calculated by 100×(T−Tz)/(C−Tz), and if T<Tz, by 100×(T−Tz)/Tz.

[1] = test system: P388 (mouse lymphoid neoplasma cell); test: In vitro antitumor effects against animal leukemia cells, dye exclusion assay; type: cell-based; settings: 48 hours, trypan blue dye exclusion, read-out: P388 (IC50, concentration showing 50% cell growth inhibition compared with the control)
Protocol: In vitro antitumor effects against animal leukemia cells.
Tumor cell line: P388 (mouse lymphoid neoplasma cell)
B. Method: Dye Exclusion Assay.
1) Concentrations of P388 cells being cultured in RPMI 1640 media containing 10% FBS were regulated to 1×10^6 cells/ml.
2) Sample drugs of respective concentrations diluted in the ratio of log doses were added into each cell culture and cultured at 37° C., for 48 hours, in […] incubator, and then viable cell numbers were measured by dye exclusion test using trypan blue.

[2] = Acute toxicity test (LD50), Litchfield-Wilcoxon method; type: in vivo; settings: mouse, in vivo, ICR mice, male, observed 14 days
HCT-15 (human colon) = test: In vitro antitumor effect against human tumor cell lines, SRB assay, HCT-15; type: cell-based; settings: HCT 15 cells, 48 hours; for IC50: Homo sapiens, read-out: ED50 HCT 15
Protocol: as §1, §2, §3, §4, §5, §6, §7, §8, §9, §10, §11

[3] = test system: A549 (human non-small lung cell); test: In vitro antitumor effect against human tumor cell lines, SRB assay, A549; type: cell-based; settings: A549 cells, 48 hours; for IC50: Homo sapiens, read-out: ED50 A 549
Protocol: as §1, §2, §3, §4, §5, §6, §7, §8, §9, §10, §11

SKMEL-2 (human melanoma) = test: In vitro antitumor effect against human tumor cell lines, SRB assay, SKMEL-2; type: cell-based; settings: SK-MEL-2 cells, 48 hours; for IC50: Homo sapiens, read-out: ED50 SK-MEL-2
Protocol: as §1, §2, §3, §4, §5, §6, §7, §8, §9, §10, §11

SKOV-3 (human ovarian) = test: In vitro antitumor effect against human tumor cell lines, SRB assay, SKOV-3; type: cell-based; settings: SK-OV-3 cells, 48 hours; for IC50: Homo sapiens, read-out: ED50 SK-OV-3
Protocol: as §1, §2, §3, §4, §5, §6, §7, §8, §9, §10, §11

ICR mice = test: Acute toxicity test (LD50), Litchfield-Wilcoxon method; type: in vivo; settings: male, i.v., observed 14 days

Compound	IC50 (XF 498 (human CNS)) [µg/mL]	IC50 [1] [µg/mL]	LD50 at 14 days ([2]; iv, i.v., read-out: LD50 i.v.) [mg/kg]	LD50 at 14 days ([2]; po, p.o., read-out: LD50 p.o.) [mg/kg]	IC50 (HCT-15 (human colon)) [ng/mL]	IC50 [3] [ng/mL]	IC50 (SKMEL-2 (human melanoma)) [ng/mL]	IC50 (SKOV-3 (human ovarian)) [ng/mL]	ED50 XF-498 (XF 498 (human CNS); XF-498 cells) [µg/mL]	LD50 i.v. (ICR mice) [mg/kg]	ED50 HCT 15 (HCT-15 (human colon)) [ng/mL]	ED50 A 549 [3] [µg/mL]	ED50 SK-MEL-2 (SKMEL-2 (human melanoma)) [ng/mL]	ED50 SK-OV-3 (SKOV-3 (human ovarian)) [ng/mL]
COc1cc(OC)cc(N2CCN(C(=O)Nc3nc4ccccc4nc3OC)CC2)c1 [Example 38, 1-[(2-Methoxyquinoxalin-3-yl)aminocarbonyl]-4-(3,5-dimethoxyphenyl)piperazine]	0.00011 (≈ 0.26 nM)	0.01 (≈ 23.6 nM)	97	410	0.13 (≈ 0.307 nM)	0.03 (≈ 0.0708 nM)	0.04 (≈ 0.0945 nM)	0.09 (≈ 0.213 nM)	–	–	–	–	–	–
COc1nc(C)c(C)cc1N=C(NO)N1CCN(c2cc(C)cc(C)c2)CC1 [Example 99, N-Hydroxy-N′-(5,6-dimethyl-2-methoxypyridin-3-yl)-[4-(3,5-dimethylphenyl)piperazin-1-yl]carboxyimidamide]	–	–	–	–	–	–	–	–	0.010 (≈ 26.1 nM)	>200	3 (≈ 7.82 nM)	0.012 (≈ 31.3 nM)	6 (≈ 15.6 nM)	8 (≈ 20.9 nM)
COc1cc(OC)cc(N2CCN(C(=O)Nc3nc(C)c(C)nc3OC)CC2)c1 [Example 3, 1-[(5,6-Dimethyl-2-methoxypyrazin-3-yl)aminocarbonyl]-4-(3,5-dimethoxyphenyl)piperazine]	0.0022 (≈ 5.48 nM)	0.01 (≈ 24.9 nM)	–	–	2 (≈ 4.98 nM)	1.6 (≈ 3.99 nM)	1.5 (≈ 3.74 nM)	6.4 (≈ 15.9 nM)	–	–	–	–	–	–
COc1nc(C)c(C)nc1NC(=O)N1CCN(c2cc(C)cc(C)c2)CC1 [Example 7, 1-[(5,6-Dimethyl-2-methoxypyrazin-3-yl)aminocarbonyl]-4-(3,5-dimethylphenyl)piperazine]	0.0027 (≈ 7.31 nM)	0.02 (≈ 54.1 nM)	75	–	2.8 (≈ 7.58 nM)	2.4 (≈ 6.5 nM)	2.3 (≈ 6.23 nM)	7.2 (≈ 19.5 nM)	–	–	–	–	–	–
CCOc1nc2ccccc2nc1NC(=O)N1CCN(c2cc(C)cc(C)c2)CC1 [Example 74, 1-[(2-Ethoxyquinoxalin-3-yl)aminocarbonyl]-4-(3,5-dimethylphenyl)piperazine]	0.024 (≈ 59.2 nM)	0.68 (≈ 1680 nM)	–	–	28 (≈ 69.1 nM)	2 (≈ 4.93 nM)	3 (≈ 7.4 nM)	38 (≈ 93.7 nM)	–	–	–	–	–	–
COc1nc(C)c(C)nc1N(C)C(=O)N1CCN(c2cc(C)cc(C)c2)CC1 [Example 20, 1-[(5,6-Dimethyl-2-methoxypyrazin-3-yl)N-methylaminocarbonyl]-4-(3,5-dimethylphenyl)piperazine]	0.97 (≈ 2530 nM)	1.2 (≈ 3130 nM)	–	–	295 (≈ 769 nM)	323 (≈ 842 nM)	211 (≈ 550 nM)	904 (≈ 2360 nM)	–	–	–	–	–	–
COc1ccccc1N1CCN(C(=O)Nc2nc3ccccc3nc2OC)CC1 [Example 37, 1-[(2-Methoxyquinoxalin-3-yl)aminocarbonyl]-4-(2-methoxyphenyl)-piperazine]	0.003 (≈ 7.62 nM)	0.3 (≈ 762 nM)	–	–	9 (≈ 22.9 nM)	10 (≈ 25.4 nM)	20 (≈ 50.8 nM)	20 (≈ 50.8 nM)	–	–	–	–	–	–
COc1nc(C)c(C)nc1N(C)C(=O)N1CCN(c2cc(Cl)cc(Cl)c2)CC1 [Example 21, 1-[(5,6-Dimethyl-2-methoxypyrazin-3-yl)N-methylaminocarbonyl]-4-(3,5-dichlorophenyl)piperazine]	0.097 (≈ 229 nM)	0.8 (≈ 1890 nM)	–	–	8 (≈ 18.9 nM)	38 (≈ 89.6 nM)	24 (≈ 56.6 nM)	93 (≈ 219 nM)	–	–	–	–	–	–
CCOc1nc2ccccc2nc1NC(=O)N1CCN(c2cc(OC)cc(OC)c2)CC1 [Example 72, 1-[(2-Ethoxyquinoxalin-3-yl)aminocarbonyl]-4-(3,5-dimethoxyphenyl)piperazine]	0.0001 (≈ 0.229 nM)	0.1 (≈ 229 nM)	–	–	0.1 (≈ 0.229 nM)	0.1 (≈ 0.229 nM)	< 0.1	0.7 (≈ 1.6 nM)	–	–	–	–	–	–
COc1nc(C)c(C)nc1NC(=O)N1CCN(c2cc(F)cc(F)c2)CC1 [Example 12, 1-[(5,6-Dimethyl-2-methoxypyrazin-3-yl)aminocarbonyl]-4-(3,5-difluorophenyl)piperazine]	0.017 (≈ 45 nM)	0.1 (≈ 265 nM)	–	–	1 (≈ 2.65 nM)	8 (≈ 21.2 nM)	8 (≈ 21.2 nM)	69 (≈ 183 nM)	–	–	–	–	–	–
COc1nc2ccccc2nc1NC(=S)N1CCN(c2cc(C)cc(C)c2)CC1 [Example 66, 1-[(2-Methoxyquinoxalin-3-yl)aminothiocarbonyl]-4-(3,5-di-methylphenyl)piperazine]	0.008 (≈ 19.6 nM)	0.2 (≈ 491 nM)	–	–	3 (≈ 7.36 nM)	5 (≈ 12.3 nM)	2 (≈ 4.91 nM)	8 (≈ 19.6 nM)	–	–	–	–	–	–
COc1nc(C)c(C)nc1NC(=O)N1CCN(c2cc([N+](=O)[O-])cc([N+](=O)[O-])c2)CC1 [Example 15, 1-[(5,6-Dimethyl-2-methoxypyrazin-3-yl)aminocarbonyl]-4-(3,5-dinitrophenyl)piperazine]	0.096 (≈ 223 nM)	0.7 (≈ 1620 nM)	–	–	71 (≈ 165 nM)	79 (≈ 183 nM)	38 (≈ 88.1 nM)	184 (≈ 427 nM)	–	–	–	–	–	–
COc1nc(C)c(C)cc1N=C(NO)N1CCN(c2cccc(Br)c2)CC1 [Example 104, N-Hydroxy-N′-(5,6-dimethyl-2-methoxypyridin-3-yl)-[4-(3-bromophenyl)piperazin-1-yl]carboxyimidamide]	–	–	–	–	–	–	–	–	–	212	–	–	–	–
COc1cc(OC)cc(N2CCN(C(=O)N(C)c3nc(C)c(C)nc3OC)CC2)c1 [Example 19, 1-[(5,6-Dimethyl-2-methoxypyrazin-3-yl)N-methylaminocarbonyl]-4-(3,5-dimethoxyphenyl)piperazine]	0.093 (≈ 224 nM)	0.2 (≈ 481 nM)	–	–	80 (≈ 193 nM)	6.4 (≈ 15.4 nM)	43 (≈ 103 nM)	143 (≈ 344 nM)	–	–	–	–	–	–
